{
  "source": "ChEMBL document CHEMBL1130646",
  "about": "“Excellent acceleration of the Diels-Alder reaction by microwave irradiation for the synthesis of new fluorine-substituted ligands of NMDA receptor” (Bioorg Med Chem Lett, 1998)",
  "data": [
    {"target": "Glutamate NMDA receptor", "experiment": "Displacement of [3H]TCP from the TCP site of NMDA receptor in rat brain homogenate", "assay_type": "tissue-based", "units": {"IC50": "µM"}, "values": [
      {"smiles": "c1csc(C2(c3cccs3)CC3c4ccccc4C2c2cccc[n+]23)c1", "note": "(configuration not stated)", "IC50": 0.0036},
      {"smiles": "OCCc1ccc(C2(c3ccc(CCO)s3)CC3c4ccccc4C2c2cccc[n+]23)s1", "note": "(configuration not stated)", "IC50": 12.4},
      {"smiles": "FCCc1ccc(C2(c3cccs3)CC3c4ccccc4C2c2cccc[n+]23)s1", "note": "(stereo in doubt; 18)", "IC50": 0.047},
      {"smiles": "FCCc1ccc(C2(c3cccs3)CC3c4ccccc4C2c2cccc[n+]23)s1", "note": "(stereo in doubt; 19)", "IC50": 0.089},
      {"smiles": "OCCc1ccc(C2(c3cccs3)CC3c4ccccc4C2c2cccc[n+]23)s1", "note": "(stereo in doubt; 20)", "IC50": 0.061},
      {"smiles": "OCCc1ccc(C2(c3cccs3)CC3c4ccccc4C2c2cccc[n+]23)s1", "note": "(stereo in doubt; 21)", "IC50": 0.141},
      {"smiles": "c1ccc(C2(N3CCCCC3)CCCCC2)cc1", "note": "[PHENCYCLIDINE]", "IC50": 0.047}
    ]}
  ]
}
